What was measured:
Acetylcholinesterase [1] = biological target: T1, Acetylcholinesterase (Bos taurus, UniProt P23795)
T1 sequence (P23795 whole entry): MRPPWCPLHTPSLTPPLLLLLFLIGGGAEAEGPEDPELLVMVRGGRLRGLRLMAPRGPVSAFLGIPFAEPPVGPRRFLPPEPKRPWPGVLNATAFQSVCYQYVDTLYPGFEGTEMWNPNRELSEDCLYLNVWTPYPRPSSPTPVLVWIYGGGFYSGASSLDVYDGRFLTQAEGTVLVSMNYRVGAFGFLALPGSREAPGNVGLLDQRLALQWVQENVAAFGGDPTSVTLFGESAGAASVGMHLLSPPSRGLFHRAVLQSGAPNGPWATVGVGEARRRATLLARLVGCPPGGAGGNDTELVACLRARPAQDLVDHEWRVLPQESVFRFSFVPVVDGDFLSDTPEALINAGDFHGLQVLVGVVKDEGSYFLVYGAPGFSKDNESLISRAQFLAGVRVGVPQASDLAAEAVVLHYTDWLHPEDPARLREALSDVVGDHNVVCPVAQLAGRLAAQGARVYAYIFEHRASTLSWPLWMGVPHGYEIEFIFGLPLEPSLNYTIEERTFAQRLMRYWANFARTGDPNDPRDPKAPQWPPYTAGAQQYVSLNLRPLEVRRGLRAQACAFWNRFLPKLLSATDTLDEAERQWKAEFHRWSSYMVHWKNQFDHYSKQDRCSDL
Description: Inhibition of bovine erythrocyte acetylcholinesterase using acetylthiocholine as substrate incubated for 15 mins by Ellman's method

Acetylcholinesterase [2] = biological target: T2, Acetylcholinesterase (Homo sapiens, UniProt P22303); assay: biochemical
T2 sequence (P22303 whole entry): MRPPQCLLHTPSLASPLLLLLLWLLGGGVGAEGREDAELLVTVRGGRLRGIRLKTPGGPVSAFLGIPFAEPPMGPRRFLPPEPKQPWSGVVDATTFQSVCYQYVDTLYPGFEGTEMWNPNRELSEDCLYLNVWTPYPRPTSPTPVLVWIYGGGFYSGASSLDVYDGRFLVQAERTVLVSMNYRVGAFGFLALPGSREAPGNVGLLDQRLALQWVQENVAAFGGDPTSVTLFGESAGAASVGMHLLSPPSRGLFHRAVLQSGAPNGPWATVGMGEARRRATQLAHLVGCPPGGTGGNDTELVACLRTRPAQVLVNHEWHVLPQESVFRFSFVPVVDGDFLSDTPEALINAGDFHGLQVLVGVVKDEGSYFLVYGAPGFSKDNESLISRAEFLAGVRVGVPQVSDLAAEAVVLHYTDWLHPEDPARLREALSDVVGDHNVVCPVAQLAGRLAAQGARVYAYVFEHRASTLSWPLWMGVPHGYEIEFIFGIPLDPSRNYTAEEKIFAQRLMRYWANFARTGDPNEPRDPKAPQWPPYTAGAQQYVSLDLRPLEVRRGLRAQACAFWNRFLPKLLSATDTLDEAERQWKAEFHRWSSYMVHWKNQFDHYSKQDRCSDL
Description: Inhibition of human acetylcholinesterase expressed in HEK 293 cells using acetylthiocholine iodide as substrate by Ellman's method

Cholinesterase [3] = biological target: T3, Cholinesterase (Homo sapiens, UniProt P06276); assay: Inhibition of human plasma butyrylcholinesterase by Ellman's method
T3 sequence (P06276 whole entry): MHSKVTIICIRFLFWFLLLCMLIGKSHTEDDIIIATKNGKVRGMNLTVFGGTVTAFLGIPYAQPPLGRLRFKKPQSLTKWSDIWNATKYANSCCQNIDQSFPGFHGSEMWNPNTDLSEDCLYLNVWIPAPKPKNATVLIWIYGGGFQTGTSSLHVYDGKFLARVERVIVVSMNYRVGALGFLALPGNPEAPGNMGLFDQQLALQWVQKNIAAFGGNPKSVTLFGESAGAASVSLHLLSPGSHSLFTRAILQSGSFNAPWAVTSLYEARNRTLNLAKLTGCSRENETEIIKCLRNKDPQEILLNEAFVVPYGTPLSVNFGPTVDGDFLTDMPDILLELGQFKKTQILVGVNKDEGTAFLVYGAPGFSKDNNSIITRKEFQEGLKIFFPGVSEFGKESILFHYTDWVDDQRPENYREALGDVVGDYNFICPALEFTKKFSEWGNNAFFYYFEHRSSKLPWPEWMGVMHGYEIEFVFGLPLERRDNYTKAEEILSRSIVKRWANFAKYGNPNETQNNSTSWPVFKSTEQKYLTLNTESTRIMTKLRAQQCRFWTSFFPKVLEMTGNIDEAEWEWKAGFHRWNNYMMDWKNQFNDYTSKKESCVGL

Acetylcholinesterase [4] = biological target: T4, Acetylcholinesterase (Electrophorus electricus, UniProt O42275); assay: Inhibition of electric eel AChE using acetylthiocholine iodide as substrate incubated for 15 mins by Ellman's method
T4 sequence (O42275 whole entry): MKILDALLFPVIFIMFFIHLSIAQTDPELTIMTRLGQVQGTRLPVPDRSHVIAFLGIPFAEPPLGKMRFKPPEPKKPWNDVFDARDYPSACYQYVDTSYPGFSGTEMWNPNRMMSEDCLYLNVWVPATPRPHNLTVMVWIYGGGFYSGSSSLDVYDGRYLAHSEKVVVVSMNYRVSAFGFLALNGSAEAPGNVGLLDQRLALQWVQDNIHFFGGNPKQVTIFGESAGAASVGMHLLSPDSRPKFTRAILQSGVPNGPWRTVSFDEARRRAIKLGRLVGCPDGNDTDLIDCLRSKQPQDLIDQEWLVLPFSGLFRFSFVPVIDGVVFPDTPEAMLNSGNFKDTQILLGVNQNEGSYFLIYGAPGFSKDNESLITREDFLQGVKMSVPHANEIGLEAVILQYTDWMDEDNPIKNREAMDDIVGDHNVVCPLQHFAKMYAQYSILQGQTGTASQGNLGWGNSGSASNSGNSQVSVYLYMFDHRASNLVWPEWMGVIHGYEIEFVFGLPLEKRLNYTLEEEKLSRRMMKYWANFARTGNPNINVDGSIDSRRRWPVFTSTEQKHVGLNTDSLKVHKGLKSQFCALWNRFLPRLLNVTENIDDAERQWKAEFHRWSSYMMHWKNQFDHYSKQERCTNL

[5] = biological target: Butyrylcholinesterase (Rattus norvegicus) (UniProt Q9JKC1); assay: Inhibition of rat serum butyrylcholinesterase using butyrylthiocholine iodide as substrate at 50 uM incubated for 15 mins by Ellman's method relative to control
Chain of Butyrylcholinesterase (Rattus norvegicus) (Q9JKC1 as listed by the source): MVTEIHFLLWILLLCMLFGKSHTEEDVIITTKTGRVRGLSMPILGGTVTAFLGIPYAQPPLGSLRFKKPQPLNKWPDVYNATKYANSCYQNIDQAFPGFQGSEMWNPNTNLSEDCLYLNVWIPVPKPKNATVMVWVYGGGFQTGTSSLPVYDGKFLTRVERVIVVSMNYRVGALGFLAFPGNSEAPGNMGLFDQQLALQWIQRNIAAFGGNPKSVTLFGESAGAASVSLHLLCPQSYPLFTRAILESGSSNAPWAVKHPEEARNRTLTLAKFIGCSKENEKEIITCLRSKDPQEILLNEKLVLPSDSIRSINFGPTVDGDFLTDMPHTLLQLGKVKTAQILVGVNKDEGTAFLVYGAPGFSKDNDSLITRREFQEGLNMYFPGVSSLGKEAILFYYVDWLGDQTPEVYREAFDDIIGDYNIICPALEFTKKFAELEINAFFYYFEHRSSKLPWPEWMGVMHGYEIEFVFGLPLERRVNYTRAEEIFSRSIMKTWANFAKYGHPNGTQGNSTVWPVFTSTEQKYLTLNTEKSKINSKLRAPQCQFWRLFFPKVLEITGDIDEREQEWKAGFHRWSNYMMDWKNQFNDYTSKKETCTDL

Acetylcholinesterase [6] = biological target: T1, Acetylcholinesterase; remark: listed apart in the source
Description: Inhibition of bovine erythrocyte acetylcholinesterase using acetylthiocholine as substrate by Ellman's method

Acetylcholinesterase [7] = biological target: T2, Acetylcholinesterase; assay: Inhibition of human acetylcholinesterase using acetylthiocholine as substrate pretreated followed by substrate addition and measured after 15 mins by Ellman's method
Homo sapiens = species on record: Homo sapiens; assay: Selectivity index, ratio of IC50 for human AChE to IC50 for human BuChE
Cholinesterase [8] = biological target: T3, Cholinesterase; assay: Inhibition of human butyrylcholinesterase using butyrylthiocholine iodide as substrate pretreated followed by substrate addition and measured after 15 mins by Ellman's method
Cholinesterase [9] = biological target: T5, Cholinesterase (Equus caballus, UniProt P81908); assay: Inhibition of equine serum BuChE using butyrylthiocholine iodide as substrate pretreated followed by substrate addition and measured after 2 mins by Ellman's method
T5 sequence (P81908 whole entry): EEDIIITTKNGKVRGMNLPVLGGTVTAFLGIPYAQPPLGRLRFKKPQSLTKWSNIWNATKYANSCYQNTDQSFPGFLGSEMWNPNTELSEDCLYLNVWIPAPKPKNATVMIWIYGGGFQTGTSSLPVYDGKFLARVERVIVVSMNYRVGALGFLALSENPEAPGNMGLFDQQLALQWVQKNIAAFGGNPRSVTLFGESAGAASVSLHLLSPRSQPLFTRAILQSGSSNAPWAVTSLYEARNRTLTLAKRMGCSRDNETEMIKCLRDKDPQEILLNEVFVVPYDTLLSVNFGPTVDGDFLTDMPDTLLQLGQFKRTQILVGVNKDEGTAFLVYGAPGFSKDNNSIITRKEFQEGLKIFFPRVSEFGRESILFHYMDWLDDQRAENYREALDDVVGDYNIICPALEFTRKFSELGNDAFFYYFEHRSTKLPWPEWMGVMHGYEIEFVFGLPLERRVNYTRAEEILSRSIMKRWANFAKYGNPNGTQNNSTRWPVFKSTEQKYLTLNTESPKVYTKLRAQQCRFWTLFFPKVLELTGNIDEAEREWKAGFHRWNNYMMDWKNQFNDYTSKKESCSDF

Acetylcholinesterase [10] = biological target: T4, Acetylcholinesterase; assay: Inhibition of electric eel AChE using acetylthiocholine iodide as substrate pretreated followed by substrate addition and measured after 2 mins by Ellman's method
Cholinesterase [11] = biological target: T3, Cholinesterase; assay: Inhibition of human butyrylcholinesterase
Acetylcholinesterase [12] = biological target: T2, Acetylcholinesterase
Acetylcholinesterase [13] = biological target: T6, Acetylcholinesterase (Rattus norvegicus, UniProt P37136); assay: Antagonist activity at Acetylcholinesterase in Sprague-Dawley rat phrenic nerve-hemidiaphragm assessed as reversal of d-tubocurarine induced neuromuscular blockade after 15 mins; settings: read-out: I50
T6 sequence (P37136 whole entry): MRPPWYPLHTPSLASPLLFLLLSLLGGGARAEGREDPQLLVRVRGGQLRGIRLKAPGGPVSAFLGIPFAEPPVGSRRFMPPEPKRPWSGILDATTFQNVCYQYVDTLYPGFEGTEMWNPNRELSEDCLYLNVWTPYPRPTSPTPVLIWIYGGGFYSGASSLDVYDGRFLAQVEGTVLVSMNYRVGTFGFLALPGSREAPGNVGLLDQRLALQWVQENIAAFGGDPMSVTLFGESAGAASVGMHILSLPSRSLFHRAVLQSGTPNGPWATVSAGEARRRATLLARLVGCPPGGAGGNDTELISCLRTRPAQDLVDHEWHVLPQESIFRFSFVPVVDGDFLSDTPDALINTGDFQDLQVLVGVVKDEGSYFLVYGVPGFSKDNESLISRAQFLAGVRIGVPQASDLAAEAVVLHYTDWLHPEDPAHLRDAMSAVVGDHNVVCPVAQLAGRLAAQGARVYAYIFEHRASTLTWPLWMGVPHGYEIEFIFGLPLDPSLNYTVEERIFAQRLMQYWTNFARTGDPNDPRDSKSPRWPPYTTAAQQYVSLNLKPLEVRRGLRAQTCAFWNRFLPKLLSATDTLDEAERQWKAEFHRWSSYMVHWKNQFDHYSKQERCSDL

Acetylcholinesterase [14] = biological target: T4, Acetylcholinesterase; assay: Inhibition of electric eel AChE using acetylthiocholine iodide as substrate pretreated for 5 mins followed by substrate addition and measured after 2 mins by Ellman's method
Acetylcholinesterase [15] = biological target: T4, Acetylcholinesterase
Description: Inhibition of electric eel AChE using acetylthiocholine iodide as substrate preincubated for 15 mins followed by substrate addition and measured after 15 mins by Ellman's method

Cholinesterase [16] = biological target: T5, Cholinesterase
Description: Inhibition of equine serum BuChE preincubated for 15 mins followed by substrate addition and measured after 15 mins by Ellman's method

[17] = biological target: Sodium-dependent serotonin transporter (Homo sapiens, UniProt P31645); assay: Inhibition of SERT (unknown origin) expressed in HEK293 cells assessed as reduction in 5-HT reuptake incubated for 30 mins followed by centrifugation for 15 secs and measured after 30 mins; assay type: cell-based
Chain of Sodium-dependent serotonin transporter (P31645 whole entry): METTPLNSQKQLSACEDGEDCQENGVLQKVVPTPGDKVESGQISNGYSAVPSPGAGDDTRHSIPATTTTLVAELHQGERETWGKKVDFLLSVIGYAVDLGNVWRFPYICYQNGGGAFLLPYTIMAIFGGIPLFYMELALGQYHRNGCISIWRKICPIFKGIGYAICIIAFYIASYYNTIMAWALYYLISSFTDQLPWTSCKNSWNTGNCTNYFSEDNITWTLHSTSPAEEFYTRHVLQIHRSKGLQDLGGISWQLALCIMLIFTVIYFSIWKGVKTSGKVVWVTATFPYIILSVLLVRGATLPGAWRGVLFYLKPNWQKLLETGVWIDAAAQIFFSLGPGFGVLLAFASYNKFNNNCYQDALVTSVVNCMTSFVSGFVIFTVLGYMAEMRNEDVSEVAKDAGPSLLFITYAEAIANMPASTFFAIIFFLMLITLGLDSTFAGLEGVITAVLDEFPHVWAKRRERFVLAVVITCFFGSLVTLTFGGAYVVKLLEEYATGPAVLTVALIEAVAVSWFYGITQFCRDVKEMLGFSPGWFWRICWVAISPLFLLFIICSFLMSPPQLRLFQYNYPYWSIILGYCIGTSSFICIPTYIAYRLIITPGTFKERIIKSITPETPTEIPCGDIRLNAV

[18] = biological target: 5-hydroxytryptamine receptor 1A (Homo sapiens, UniProt P08908); assay: Agonist activity at human 5H1A receptor expressed in HEK293 cells incubated for 60 mins by Eu-cAMP tracer based LANCE ultra cAMP assay; assay type: functional, cell-based
Chain of 5-hydroxytryptamine receptor 1A (P08908 whole entry): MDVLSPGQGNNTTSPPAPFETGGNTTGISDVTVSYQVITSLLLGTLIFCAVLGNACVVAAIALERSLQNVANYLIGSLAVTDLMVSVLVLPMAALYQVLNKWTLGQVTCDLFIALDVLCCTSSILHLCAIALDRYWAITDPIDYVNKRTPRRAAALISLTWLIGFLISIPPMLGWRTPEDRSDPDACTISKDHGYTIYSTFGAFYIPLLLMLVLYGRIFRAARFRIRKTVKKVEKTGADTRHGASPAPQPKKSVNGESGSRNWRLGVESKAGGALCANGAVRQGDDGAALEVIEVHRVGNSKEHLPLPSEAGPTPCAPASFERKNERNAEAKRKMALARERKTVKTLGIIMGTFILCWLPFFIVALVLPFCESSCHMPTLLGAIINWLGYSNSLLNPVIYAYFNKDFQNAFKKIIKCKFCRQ

Acetylcholinesterase [19] = biological target: T6, Acetylcholinesterase; assay: Inhibition of rat cortex acetylcholinesterase using acetylthiocholine iodide as substrate incubated for 20 mins by Ellman's method
Acetylcholinesterase [20] = biological target: T2, Acetylcholinesterase; assay: Inhibition of human erythrocyte acetylcholinesterase using acetylthiocholine as substrate preincubated for 60 mins followed by substrate addition by Ellman's method

Compound: CC1=CC2Cc3nc4cc(Cl)ccc4c(N)c3C(C1)C2 (single isomer, unassigned; (+)) [HUPRINE Y]
- IC50 (Acetylcholinesterase [1]): 0.0361 µM

Compound: O=C(c1ccc(OCCCc2cnc[nH]2)cc1)C1CC1 [CIPROXIFAN]
- IC50 (Acetylcholinesterase [2]): 86.1 µM
- IC50 (Cholinesterase [3]): 77.3 µM

Compound: CCN(CC)Cc1ccc(/C=C/c2cnc(C)c(O)c2CO)cc1O
- IC50 (Acetylcholinesterase [4]): 2.11 µM
- inhibition [5]: 16.7%

Compound: C/C=C1\C2C=C(C)CC1c1c(nc3ccccc3c1N)C2 (racemic)
- IC50 (Acetylcholinesterase [6]): 0.32 µM

Compound: O=C(/C=C/c1ccc(OCc2ccccc2)cc1)NCCNc1c2c(nc3ccccc13)CCCC2
- IC50 (Acetylcholinesterase [7]): 0.0606 µM
- Selectivity Index (Homo sapiens): 0.7
- IC50 (Cholinesterase [8]): 0.0861 µM
- IC50 (Cholinesterase [9]): 0.0426 µM
- IC50 (Acetylcholinesterase [10]): 0.0295 µM

Compound: COc1ccc2[nH]cc(CCNC(=O)CN(CCCC3CCN(Cc4ccccc4)CC3)C(=O)/C=C/c3ccc(O)c(OC)c3)c2c1
- IC50 (Cholinesterase [11]): 0.0175 µM
- IC50 (Acetylcholinesterase [12]): 0.0262 µM

Compound: CC1=C[C@@H]2Cc3nc4cc(F)ccc4c(N)c3[C@H](C1)C2 (racemic)
- IC50 (Acetylcholinesterase [6]): 0.085 µM
- IC50 (Acetylcholinesterase [13]): 0.008 µM

Compound: CN(C)C(=O)Oc1ccccc1-c1nc2ccccc2s1
- IC50 (Acetylcholinesterase [14]): 20.9 µM

Compound: O=C(NCCc1c[nH]c2ccccc12)c1cc(-c2ccccc2Cl)on1
- IC50 (Acetylcholinesterase [15]): 29.5 µM
- IC50 (Cholinesterase [16]): 46.1 µM

Compound: COc1ccc2[nH]cc(CCNC(=O)CN(CCC3CCN(Cc4ccccc4)CC3)C(=O)/C=C/c3ccc(O)c(OC)c3)c2c1
- IC50 (Cholinesterase [11]): 0.0218 µM
- IC50 (Acetylcholinesterase [12]): 0.0307 µM

Compound: N#Cc1ccc2[nH]cc(CCCCN3CCN(c4c5c(nc6ccccc46)CCC5)CC3)c2c1
- IC50 [17]: 0.0763 µM
- EC50 [18]: 0.107 µM
- IC50 (Acetylcholinesterase [19]): 3.32 µM

Compound: C#CCN(C)C(C)Cc1cccc(OC(=O)N(C)CCCCCC)c1 (single isomer, unassigned; (-))
- IC50 (Acetylcholinesterase [20]): 3.4 µM
